What all share (format): functional, cell-based
For data set [1], the target named is T1, Multidrug resistance-associated protein 1 (Homo sapiens, UniProt P33527). Put plainly: TP_TRANSPORTER: increase in Vinblastine intracellular accumulation (Vinblastine: 0.05 uM, Silymarin: 100 uM) in Panc-1 cells. The following applies: panc-1, 100 µM.
For data set [2], the target named is T1, Multidrug resistance-associated protein 1. Nature of the data set: TP_TRANSPORTER: increase in Daunomycin intracellular accumulation (Daunomycin: 0.05 uM, Silymarin: 100 uM) in Panc-1 cells. The conditions noted are these: panc-1, 100 µM.
The target is the same in data set [3]. Nature of the data set: TP_TRANSPORTER: increase in Vinblastine intracellular accumulation (Vinblastine: 0.05 uM, Chrysin: 100 uM) in Panc-1 cells. The conditions noted are these: panc-1, 100 µM.
The target is the same in data set [4]. Put plainly: TP_TRANSPORTER: increase in Daunomycin intracellular accumulation (Daunomycin: 0.05 uM, Chrysin: 100 uM) in Panc-1 cells. The conditions noted are these: panc-1, 100 µM.
For data set [5] the target is unchanged. Nature of the data set: TP_TRANSPORTER: increase in Vinblastine intracellular accumulation (Vinblastine: 0.05 uM, Phloretin: 100 uM) in PANC-1 cells. The conditions noted are these: panc-1, 100 µM.
Data set [6] shares this target. Put plainly: TP_TRANSPORTER: increase in Daunomycin intracellular accumulation (Daunomycin: 0.05 uM, Phloretin: 100 uM) in PANC-1 cells. The conditions noted are these: panc-1, 100 µM.
Data set [7] shares this target. Nature of the data set: TP_TRANSPORTER: increase in Vinblastine intracellular accumulation (Vinblastine: 0.05 uM, Morin: 100 uM) in Panc-1 cells. The conditions noted are these: panc-1, 100 µM.
The target is the same in data set [8]. Put plainly: TP_TRANSPORTER: increase in Daunomycin intracellular accumulation (Daunomycin: 0.05 uM, Morin: 100 uM) in Panc-1 cells. The conditions noted are these: panc-1, 100 µM.
Data set [9] shares this target. Nature of the data set: TP_TRANSPORTER: increase in Vinblastine intracellular accumulation (Vinblastine: 0.05 uM, BiochaninA: 101 uM) in Panc-1 cells. The conditions noted are these: panc-1, 101 µM.
The target is the same in data set [10]. Put plainly: TP_TRANSPORTER: increase in Daunomycin intracellular accumulation (Daunomycin: 0.05 uM, BiochaninA: 100 uM) in Panc-1 cells. The conditions noted are these: panc-1, 100 µM.
The target is the same in data set [11]. Nature of the data set: TP_TRANSPORTER: increase in Vinblastine intracellular accumulation (Vinblastine: 0.05 uM, Genistein: 100 uM) in Panc-1 cells. The conditions noted are these: panc-1, 100 µM.
Data set [12] has the same target. Nature of the data set: TP_TRANSPORTER: increase in Daunomycin intracellular accumulation (Daunomycin: 0.05 uM, Genistein: 100 uM) in Panc-1 cells. The conditions noted are these: panc-1, 100 µM.

This is an account of results in ChEMBL document CHEMBL2073757, “Effect of flavonoids on MRP1-mediated transport in Panc-1 cells” (J Pharm Sci, 2003).

T1 sequence (P33527 whole entry): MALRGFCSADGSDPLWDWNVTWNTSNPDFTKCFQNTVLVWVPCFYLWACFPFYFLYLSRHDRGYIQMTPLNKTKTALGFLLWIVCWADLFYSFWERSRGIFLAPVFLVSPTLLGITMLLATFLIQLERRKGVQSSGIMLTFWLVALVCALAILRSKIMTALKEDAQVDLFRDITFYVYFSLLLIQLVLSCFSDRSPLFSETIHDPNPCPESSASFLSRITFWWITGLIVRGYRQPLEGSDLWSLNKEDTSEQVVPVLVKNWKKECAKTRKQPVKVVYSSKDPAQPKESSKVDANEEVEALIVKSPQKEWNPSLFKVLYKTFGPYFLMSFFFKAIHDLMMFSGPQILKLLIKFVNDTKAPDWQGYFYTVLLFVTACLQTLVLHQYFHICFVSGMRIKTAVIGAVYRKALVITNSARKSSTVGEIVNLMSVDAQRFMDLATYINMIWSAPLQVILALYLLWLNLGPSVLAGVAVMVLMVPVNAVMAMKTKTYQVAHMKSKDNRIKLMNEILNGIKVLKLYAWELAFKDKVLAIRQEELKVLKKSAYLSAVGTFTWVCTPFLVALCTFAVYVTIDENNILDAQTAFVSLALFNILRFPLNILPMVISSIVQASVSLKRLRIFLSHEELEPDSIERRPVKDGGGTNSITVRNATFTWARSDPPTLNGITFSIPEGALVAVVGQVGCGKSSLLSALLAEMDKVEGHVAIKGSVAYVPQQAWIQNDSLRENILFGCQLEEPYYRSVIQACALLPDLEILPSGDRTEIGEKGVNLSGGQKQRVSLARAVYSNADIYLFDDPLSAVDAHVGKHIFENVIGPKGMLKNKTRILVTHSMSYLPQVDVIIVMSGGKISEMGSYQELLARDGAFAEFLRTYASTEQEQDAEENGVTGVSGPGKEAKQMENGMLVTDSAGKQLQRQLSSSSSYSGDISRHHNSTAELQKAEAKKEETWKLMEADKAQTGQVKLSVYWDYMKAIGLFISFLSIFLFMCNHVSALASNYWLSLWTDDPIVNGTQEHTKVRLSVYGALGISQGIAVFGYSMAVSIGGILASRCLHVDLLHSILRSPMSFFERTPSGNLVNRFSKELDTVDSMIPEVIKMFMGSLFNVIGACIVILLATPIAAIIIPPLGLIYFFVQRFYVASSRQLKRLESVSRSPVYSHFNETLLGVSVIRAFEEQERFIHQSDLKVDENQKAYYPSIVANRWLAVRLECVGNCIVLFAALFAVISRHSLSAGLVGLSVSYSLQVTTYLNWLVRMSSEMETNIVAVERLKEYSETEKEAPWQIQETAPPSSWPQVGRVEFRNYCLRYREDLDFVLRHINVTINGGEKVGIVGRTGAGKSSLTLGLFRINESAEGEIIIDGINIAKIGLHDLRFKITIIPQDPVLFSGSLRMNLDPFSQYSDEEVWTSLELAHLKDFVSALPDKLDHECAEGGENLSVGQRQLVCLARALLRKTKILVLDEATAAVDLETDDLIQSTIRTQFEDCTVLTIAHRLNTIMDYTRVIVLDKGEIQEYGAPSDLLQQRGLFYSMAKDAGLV

SILYMARIN: the figures for the Activity in data set [1] and in data set [2] were 329% and 305%, respectively.

`O=c1cc(-c2ccccc2)oc2cc(O)cc(O)c12` [CHRYSIN]: the values for the Activity in [3] and in [4] were 180% and 198%, respectively.

As for `O=C(CCc1ccc(O)cc1)c1c(O)cc(O)cc1O` [PHLORETIN], the Activity in [5] worked out at 251%; in data set [6] it was 295%.

Regarding `O=c1c(O)c(-c2ccc(O)cc2O)oc2cc(O)cc(O)c12` [MORIN], the figures for the Activity in data set [7] and in [8] were 553% and 546%, respectively.

Consider `COc1ccc(-c2coc3cc(O)cc(O)c3c2=O)cc1` [BIOCHANIN], for which the values for the Activity in data set [9] and in data set [10] were 330% and 178%, respectively.

As for `O=c1c(-c2ccc(O)cc2)coc2cc(O)cc(O)c12` [GENISTEIN], the Activity came to 191% in [11] and 156% in [12].
